Measured values reported in PMC6321145 (Molecules, 2018).

Assays:
SH-SY5Y cells = test: Cellular ROS detection (DCFH-DA) in SH-SY5Y cells treated with t-BuOOH; type: cell-based, human; conditions: compound 2.5 μM; 0.1 mM t-BuOOH; compared with Trolox
Experimental: To further investigate their antioxidant activity in SH-SY5Y cells, cellular ROS detection assay based on dichlorofluorescein diacetate (DCFH-DA) was performed. with Trolox and N-acetyl-L-cysteine (NAC) as reference compounds.
SH-SY5Y cells were maintained in Dulbecco’s modified Eagle’s medium (DEME) and supplemented with 1 mM glutamine, 10% fetal calf serum, 100 U/mL penicillin, and 100 μg/mL streptomycin. The cultures were maintained at 37 °C in a humidified incubator containing 5% CO2 and were passaged twice weekly.
The antioxidant activity of the compounds in SH-SY5Y cells were tested with the fluorescent probe (2′,7′-dichlorofluorescein diacetate, DCFH-DA) as reported with some variation. SH-SY5Y cells were sub-cultured in 96-well plates at a seeding density of 1 × 10^4 cells per well for 24 h, then the medium was removed, the tested compounds (2.5 μM) was added and incubated for another 24 h at 37 °C. After that, the cells were washed with PBS and incubated with 5 μM DCFH-DA in PBS at 37 °C in 5% CO2 for 30 min. Then DCFH-DA was removed, the cells were washed three times and incubated with 0.1 mM t-BuOOH in PBS for 30 min. After the incubation, the cell fluorescence from each well was measured at 485 nm excitation and 535 nm emission with a monochromator based multimode microplate reader ([…] M1000).

[1] = Oxygen radical absorbance capacity with fluorescein (ORAC-FL) assay
Experimental: Oxidative stress is another crucial event in AD pathogenesis. In order to determine antioxidant activities of our synthetic compounds, the oxygen radical absorbance capacity method with fluorescein (ORAC-FL) assay was performed. with Trolox (6-hydroxy-2,5,7,8-tetramethylchroman-2-carboxylic acid) as the standard, and their antioxidant activity was expressed as Trolox equivalents.
The antioxidant activities of the compounds in vitro were determined by the oxygen radical absorbance capacity fluorescein (ORAC-FL) assay. The tested compounds and (±)-6-hydroxy-2,5,7,8-tetramethylchroman-2-carboxylic acid (Trolox) were dissolved in DMSO at a concentration of 10 mM, and then diluted with 75 mM potassium phosphate buffer (pH 7.4) to 50 μM and 10 μM for use. The fluorescein (FL) stock solution (3.4 mM) was diluted with the same buffer to 136 nM. All the assays were conducted with 75 mM potassium phosphate bufffer (pH 7.4), and the final reaction mixture was 200 μL.
The mixture of compounds (or buffer) (20 μL) and fluorescein (FL, 120 μL) were incubated for 15 min at 37 °C in a black 96-well plate. Then 2,2′-azobis-(amidino-propane)-dihydrochloride (AAPH) solution (60 μL, 40 mM) was rapidly added to the reaction mixture. The fluorescence was recorded every 5 min for 240 min at 485 nm (excitation wavelength) and 535 nm (emission wavelength) (Varioskan Flash Multimode Reader, Thermo Scientific, Waltham, MA, USA), and each sample was prepared and measured for three times independently. […] The net AUC for a sample was calculated using the expression net AUC = AUCsample − AUCblank, The ORAC-FL value of each sample was calculated using the equation of net AUCsample/(AUCTrolox – AUCblank), which was expressed as Trolox equivalents.

[2] = Cytotoxicity on SH-SY5Y cells (MTT); type: cell-based, human; conditions: human, SH-SY5Y neuroblastoma cells; MTT, 24 h; mean ± SEM of three measurements
Experimental: The cytotoxicity of our synthesized compounds was examined in human neuroblastoma SH-SY5Y cells. The cell viability was determined by using methyl thiazolyl tetrazolium (MTT) colorimetry, the cells were treated with different concentrations of compounds (0–100 μM). The result is shown in the Supplementary Materials (Table S1).
The cytotoxicities of the compounds were evaluated using the MTT assay. SH-SY5Y cells were subcultured in 96-well plates at a seeding density of 1 × 10^4 cells per well. After 24 h, the medium was removed and treated with different concentrations of tested compounds for 24 h at 37 °C. The survival of cells was determined with MTT assay. Then 80 μL of medium and 20 μL of MTT (0.5 mg/mL, final concentration) were added to each well and incubated for another 4 h. After the removal of MTT, the formazan crystals were dissolved in DMSO. The amount of formazan was measured using a microculture plate reader at the wavelength of 570 nm. Each concentration was performed in triplicate.

Aβ1–42 [3] = molecular target: T1, Aβ1–42 (Homo sapiens, UniProt P05067); test: Inhibition of self-induced Aβ1–42 aggregation (ThT fluorescence assay); type: biochemical; conditions: for inhibition at 20 µM: inhibitor 20 μM, Aβ1–42 50 μM, ThT, 37 °C, 72 h, mean ± SD
T1 construct: Aβ1–42 (Sigma, St. Louis, MO, USA; counterion, NaOH) stock solution was prepared by dissolving Aβ1–42 peptide in ammonium hydroxide; purchased Sigma
T1 sequence (P05067 672-713): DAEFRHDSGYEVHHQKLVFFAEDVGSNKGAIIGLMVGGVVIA
Experimental: The formation and aggregation of Aβ1–42 in the brain leads to neurotoxicity in AD. In order to evaluate the activity of our new synthetic compounds to inhibit Aβ1–42 self-induced aggregation, the thioflavin (ThT) fluorescence assay was performed.
All ThT experiments were performed according to our previously published methods. Aβ1–42 (Sigma, St. Louis, MO, USA; counterion, NaOH) stock solution was prepared by dissolving Aβ1–42 peptide in ammonium hydroxide (1% v/v), and diluting with 20 mM phosphate buffer (pH 7.4) to 100 μM. The tested compounds were firstly dissolved in DMSO at a concentration of 10 mM, and then diluted with 20 mM phosphate buffer (pH 7.4) to 40 μM.
For the inhibition of self-induced Aβ1–42 aggregation. Aβ1–42 peptide (2 μL, 50 μM, final concentration) with the tested compound (2 μL, 20 μM, final concentration) or 20 mM phosphate buffer (2 μL) was incubated in 20 mM phosphate buffer (pH 7.4) at 37 °C for 72 h. After incubation, the samples were diluted to a final volume of 36 μL with 50 mM glycine-NaOH buffer (pH 8.5) containing 5 μM Thioflavin T. Fluorescence signal was measured (excitation wavelength 450 nm, emission wavelength 485 nm, and slit widths set to 5 nm) on a monochromator-based multimode microplate reader ([…] M1000, TECAN, Hombrechtikon, Switzerland), adapted for 384-well microtiter plates. […] Each compound was examined in triplicate.

Aβ1–42 [4] = molecular target: T1, Aβ1–42; test: Inhibition of Cu^2+-induced Aβ1–42 aggregation (ThT-binding assay); type: biochemical; conditions: [Aβ] = 20 μM, [Cu^2+] = 20 μM, [compound] = 40 μM; 37 °C, 24 h
Experimental: To investigate the ability of compound 6b1 to inhibit Cu^2+-induced Aβ1–42 aggregation, the ThT-binding assay was performed.
Aβ was diluted in […] (pH 6.6) with […]. The mixture of the peptide (10 μL, 20 μM, final concentration) with or without copper (10 μL, 20 μM, final concentration) and the test compound (10 μL, 40 μM, final concentration) was incubated at 37 °C for 24 h. The 30 μL of the sample was diluted to a final volume of 200 μL with 50 mM glycine-NaOH buffer (pH 8.0) containing thioflavin T (5 μM). The detection method was the same as that of self-induced Aβ aggregation experiment.

Aβ1–42 fibrils = molecular target: T2, Aβ1–42 fibrils (Homo sapiens, UniProt P05067); test: TEM assay of Aβ1–42 fibrils; type: biochemical; conditions: compound 20 μM; 37 °C, 24 h
T2 construct: Aβ1–42 (Sigma, St. Louis, MO, USA; counterion, NaOH) stock solution was prepared by dissolving Aβ1–42 peptide in ammonium hydroxide; purchased Sigma
T2 sequence (P05067 672-713): as above
Experimental: To further complement the ThT binding assay, A transmission electron microscopy (TEM) assay was employed to monitor and clarify the effect of compound 6b1 on Aβ1−42 aggregation.
The ability of compound 6b1 to disaggregate self-induced Aβ1–42 aggregation fibrils was also investigated. Aβ1–42 fibrils were prepared by incubating fresh Aβ1–42 for 24 h at 37 °C, and the test compound was added to the sample and incubated for another 24 h at 37 °C. Then the sample was analyzed by ThT binding assay and TEM assay.
Aβ1–42 peptide (Sigma) was dissolved in 20 mM phosphate buffer (pH 7.4) at 4 °C to 100 μM before use.
Aβ1–42 was incubated at 37 °C for 24 h. Then, 40 μM tested compound was added and incubated at 37 °C for another 24 h. The final concentrations of Aβ1–42 and the compounds were 50 μM and 20 μM, respectively. After incubation, aliquots (5 μL) of the samples were placed on a carbon-coated copper/rhodium grid for 2 min at room temperature. Each grid was stained with uranyl acetate (1%, 5 μL) for 2 min. Excess staining solution was removed and the specimen was transferred for imaging with transmission electron microscopy (JEOL JEM-1400, Tokyo, Japan).

| Compound | Antioxidant activity in SH-SY5Y cells (ROS generation, DCFH-DA fluorescence) (SH-SY5Y cells) | ORAC ([1]; compound 1 μM) | ORAC ([1]; compound 5 μM) | melting point | IC50 at 24 h [2] | inhibition at 20 µM (Aβ1–42 [3]) | IC50 (Aβ1–42 [3]; ThT fluorescence method, mean ± SD of three experiments, read-out: IC50 against self-induced Aβ1–42 aggregation) | Inhibition of Cu^2+-induced Aβ aggregation (Aβ1–42 [4]) | TEM: Aβ1–42 fibril formation in presence of compound (Aβ1–42 fibrils) |
| --- | --- | --- | --- | --- | --- | --- | --- | --- | --- |
| CN(C)CCCNc1cc(/C=C/c2c[nH]c3ccccc23)nc2ccccc12 [Compound 6b3, (E)-N^1-(2-(2-(1H-Indol-3-yl)vinyl)quinolin-4-yl)-N^3,N^3-dimethylpropane-1,3-diamine] | a little weaker antioxidant activity than Trolox | 3.96 ± 0.08 μmol of Trolox equivalents/μmol of tested compounds | 4.21 ± 0.08 μmol of Trolox equivalents/μmol of tested compounds | 168.2 to 169.5 °C | 168.1 ± 0.2 µM | 87.2 ± 2.1% | – | – | – |
| CCN(CC)CCCNc1cc(/C=C/c2ccc(N(CC)CC)cc2)nc2ccccc12 [Compound 6a1, (E)-N^1-(2-(4-(Diethylamino)styryl)quinolin-4-yl)-N^3,N^3-diethylpropane-1,3-diamine] | more antioxidant activity than Trolox | 5.92 ± 0.03 μmol of Trolox equivalents/μmol of tested compounds | – | 182.3 to 184 °C | 189 µM | 90.2 ± 1.3% | 7.8 ± 0.4 µM | – | – |
| Oc1c(I)cc(Cl)c2cccnc12 [CQ, clioquinol] | – | – | – | – | – | – | – | 83.6% | – |
| CCN(CC)CCCNc1cc(/C=C/c2ccc(N3CCOCC3)cc2)nc2ccccc12 [Compound 6a4, (E)-N^1,N^1-Diethyl-N^3-(2-(4-morpholinostyryl)quinolin-4-yl)propane-1,3-diamine] | a little weaker antioxidant activity than Trolox | 4.16 ± 0.04 μmol of Trolox equivalents/μmol of tested compounds | 4.52 ± 0.03 μmol of Trolox equivalents/μmol of tested compounds | 172.5 to 174.3 °C | 145.2 ± 0.9 µM | 87.9 ± 1.1% | – | – | – |
| Oc1ccc(/C=C/c2cc(O)cc(O)c2)cc1 [Res, resveratrol, reference compound] | – | – | – | – | – | 77.2 ± 1.1% | – | 71.2% | a few thick fibrils |
| Cc1c(C)c2c(c(C)c1O)CCC(C)(C(=O)O)O2 (stereo not shown) [Trolox, 6-hydroxy-2,5,7,8-tetramethylchroman-2-carboxylic acid, reference compound] | decrease the intensity of fluorescence | – | – | – | – | – | – | – | – |
| CC(=O)N[C@@H](CS)C(=O)O [NAC, N-acetyl-L-cysteine, reference compound] | didn’t remove ROS generation | – | – | – | – | – | – | – | – |
| CCN(CC)c1ccc(/C=C/c2cc(NCCN(C)C)c3ccccc3n2)cc1 [Compound 6c1, (E)-N^1-(2-(4-(Diethylamino)styryl)quinolin-4-yl)-N^2,N^2-dimethylethane-1,2-diamine] | – | 2.79 ± 0.04 μmol of Trolox equivalents/μmol of tested compounds | 3.24 ± 0.10 μmol of Trolox equivalents/μmol of tested compounds | 145.2 to 147.1 °C | 154.3 ± 0.5 µM | 85.1 ± 1.4% | – | – | – |
| CC(C)CNc1cc(/C=C/c2ccc(N(C)C)cc2)nc2ccccc12 [Compound 6e2, (E)-2-(4-(Dimethylamino)styryl)-N-isobutylquinolin-4-amine] | – | 1.68 ± 0.06 μmol of Trolox equivalents/μmol of tested compounds | 1.78 ± 0.05 μmol of Trolox equivalents/μmol of tested compounds | 171.8 to 173.2 °C | 141.9 ± 0.5 µM | 77.5 ± 1.5% | – | – | – |
